Patent publication US12291519B2, “2-hydroxycycloalkane-1-carbamoyl” (Idorsia Pharmaceuticals Ltd, priority 2019, dated 2025)

Key:
human Gal-3 (hGal-3) = human Gal-3 (hGal-3) (Homo sapiens (Human), UniProt P17931); assay: Competitive binding assay: biotinylated hGal-3 binding to microplate-adsorbed asialofetuin (ASF); settings: Activity on hGal-3; binding of biotinylated hGal-3 to ASF-coated plates; mean values
Procedure, shortened: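 Serially diluted compounds competed with biotinylated human Gal-3 for binding to plate-adsorbed asialofetuin over 3 h at 4 °C. Bound Gal-3 was detected with streptavidin-peroxidase (80 ng/mL, 1 h, 4 °C) and ABTS substrate. IC50 values are means of several measurements.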

human Gal-1 (hGal-1) = assay: Competitive binding assay: biotinylated hGal-1 binding to microplate-adsorbed asialofetuin (ASF); settings: Activity on hGal-1; binding of biotinylated hGal-1 to ASF-coated plates; mean values
Chain of human Gal-1 (hGal-1) (P09382 2-135 limits assumed): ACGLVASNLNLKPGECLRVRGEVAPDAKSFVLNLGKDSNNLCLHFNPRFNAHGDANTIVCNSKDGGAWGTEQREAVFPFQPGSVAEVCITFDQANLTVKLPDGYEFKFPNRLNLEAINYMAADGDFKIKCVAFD
Procedure, shortened: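 Inhibition measured as loss of hGal-1 (biotinylated, 300–1000 ng/mL, wild type or Cys→Ser mutant) binding to adsorbed asialofetuin over 3 h at 4 °C. Bound lectin detected with streptavidin-HRP and ABTS (410 nm, 30–45 min); IC50 values averaged across repeat measurements.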

Chain of human Gal-3 (hGal-3) (P17931 whole entry): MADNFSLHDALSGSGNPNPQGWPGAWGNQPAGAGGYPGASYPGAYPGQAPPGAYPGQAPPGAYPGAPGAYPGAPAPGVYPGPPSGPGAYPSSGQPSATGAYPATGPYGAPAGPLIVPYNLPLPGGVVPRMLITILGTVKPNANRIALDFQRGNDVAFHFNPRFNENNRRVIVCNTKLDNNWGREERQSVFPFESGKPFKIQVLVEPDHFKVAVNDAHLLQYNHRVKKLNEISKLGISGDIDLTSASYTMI

Row | Compound | IC50 (human Gal-3 (hGal-3)) [nM] | IC50 (human Gal-1 (hGal-1)) [nM]
1 | CO[C@@H]1[C@@H](n2cc(-c3cc(F)c(Br)c(F)c3)nn2)[C@@H](O)[C@@H](CO)O[C@H]1C(=O)N(c1cc(Cl)cc(C#N)c1)[C@H]1CCCC[C@@H]1O [Example 154, (2R,3R,4S,5R,6R)-4-(4-(4-bromo-3,5-difluorophenyl)-1H-1,2,3-triazol-1-yl)-N-(3-chloro-5-cyanophenyl)-5-hydroxy-N-((1S,2S)-2-hydroxycyclohexyl)-6-(hydroxymethyl)-3-methoxytetrahydro-2H-pyran-2-carboxamide] | 23 | 957
2 | Cn1ccnc1CN(C(=O)[C@@H]1O[C@H](CO)[C@H](O)[C@H](n2cc(-c3cc(F)c(F)c(F)c3)nn2)[C@H]1O)[C@H]1CCCC[C@@H]1O [Example 41, (2R,3R,4S,5R,6R)-3,5-dihydroxy-N-((1S,2S)-2-hydroxycyclohexyl)-6-(hydroxymethyl)-N-((1-methyl-1H-imidazol-2-yl)methyl)-4-(4-(3,4,5-trifluorophenyl)-1H-1,2,3-triazol-1-yl)tetrahydro-2H-pyran-2-carboxamide] | 464 | 12400
3 | CO[C@@H]1[C@@H](n2cc(-c3cc(F)c(N4CCOCC4)c(F)c3)nn2)[C@@H](O)[C@@H](CO)O[C@H]1C(=O)N(c1cc(Cl)cc(Cl)c1)[C@H]1CCCC[C@@H]1O [Example 203] | 24 | 678
4 | CC(=O)O[C@@H]1[C@@H](n2cc(-c3cccc(F)c3)nn2)[C@@H](O)[C@@H](CO)O[C@H]1C(=O)N(Cc1ccnn1C)[C@H]1CCCC[C@@H]1O [Example 52, (2R,3R,4S,5R,6R)-4-(4-(3-fluorophenyl)-1H-1,2,3-triazol-1-yl)-5-hydroxy-2-(((1S,2S)-2-hydroxycyclohexyl)((1-methyl-1H-pyrazol-5-yl)methyl)carbamoyl)-6-(hydroxymethyl)tetrahydro-2H-pyran-3-yl acetate] | 191 | 1600
5 | CO[C@@H]1[C@@H](n2cc(-c3ccc(F)c(F)c3)nn2)[C@@H](O)[C@@H](CO)O[C@H]1C(=O)N(c1cc(Cl)cc(Cl)c1)[C@H]1CCCC[C@@H]1O [Example 162, (2R,3R,4S,5R,6R)-N-(3,5-dichlorophenyl)-4-(4-(3,4-difluorophenyl)-1H-1,2,3-triazol-1-yl)-5-hydroxy-N-((1S,2S)-2-hydroxycyclohexyl)-6-(hydroxymethyl)-3-methoxytetrahydro-2H-pyran-2-carboxamide] | 32 | 134
6 | CO[C@@H]1[C@@H](n2cc(-c3cc(F)c(F)c(F)c3)nn2)[C@@H](O)[C@@H](CO)O[C@H]1C(=O)N(Cc1sccc1C)[C@H]1CCCC[C@@H]1O [Example 33, (2R,3R,4S,5R,6R)-5-hydroxy-N-((1S,2S)-2-hydroxycyclohexyl)-6-(hydroxymethyl)-3-methoxy-N-((3-methylthiophen-2-yl)methyl)-4-(4-(3,4,5-trifluorophenyl)-1H-1,2,3-triazol-1-yl)tetrahydro-2H-pyran-2-carboxamide] | 127 | 962
7 | O=C([C@@H]1O[C@H](CO)[C@H](O)[C@H](n2cc(-c3cc(F)c(F)c(F)c3)nn2)[C@H]1O)N(Cc1cccnc1C(F)(F)F)[C@H]1CCCC[C@@H]1O [Example 9, (2R,3R,4S,5R,6R)-3,5-dihydroxy-N-((1S,2S)-2-hydroxycyclohexyl)-6-(hydroxymethyl)-N-((2-(trifluoromethyl)pyridin-3-yl)methyl)-4-(4-(3,4,5-trifluorophenyl)-1H-1,2,3-triazol-1-yl)tetrahydro-2H-pyran-2-carboxamide] | 147 | 1640
8 | CO[C@@H]1[C@@H](n2cc(-c3cc(F)c(F)c(F)c3)nn2)[C@@H](O)[C@@H](CO)O[C@H]1C(=O)N(c1ccc(F)c(F)c1)[C@H]1CCCC[C@@H]1O [Example 56] | 42 | 417
9 | COc1cc(C#N)cc(N(C(=O)[C@@H]2O[C@H](CO)[C@H](O)[C@H](n3cc(-c4cc(F)c(F)c(F)c4)nn3)[C@H]2OC)[C@H]2CCCC[C@@H]2O)c1 [Example 108, (2R,3R,4S,5R,6R)-N-(3-cyano-5-methoxyphenyl)-5-hydroxy-N-((1S,2S)-2-hydroxycyclohexyl)-6-(hydroxymethyl)-3-methoxy-4-(4-(3,4,5-trifluorophenyl)-1H-1,2,3-triazol-1-yl)tetrahydro-2H-pyran-2-carboxamide] | 24 | 1570
10 | CC(=O)O[C@@H]1[C@@H](n2cc(-c3cc(F)c(Cl)c(F)c3)nn2)[C@@H](O)[C@@H](CO)O[C@H]1C(=O)N(Cc1ccccc1C(F)(F)F)[C@H]1CCCC[C@@H]1O [Example 68, (2R,3R,4S,5R,6R)-4-(4-(4-chloro-3,5-difluorophenyl)-1H-1,2,3-triazol-1-yl)-5-hydroxy-2-(((1S,2S)-2-hydroxycyclohexyl)(2-(trifluoromethyl)benzyl)carbamoyl)-6-(hydroxymethyl)tetrahydro-2H-pyran-3-yl acetate] | 44 | 1170
11 | COc1cc(F)cc(N(C(=O)[C@@H]2O[C@H](CO)[C@H](O)[C@H](n3cc(-c4cc(F)c(F)c(F)c4)nn3)[C@H]2OC)[C@H]2CCCC[C@@H]2O)c1 [Example 118, (2R,3R,4S,5R,6R)-N-(3-fluoro-5-methoxyphenyl)-5-hydroxy-N-((1S,2S)-2-hydroxycyclohexyl)-6-(hydroxymethyl)-3-methoxy-4-(4-(3,4,5-trifluorophenyl)-1H-1,2,3-triazol-1-yl)tetrahydro-2H-pyran-2-carboxamide] | 26 | 1480

These reach a lower IC50 (human Gal-3 (hGal-3)). Values come first.

Row | IC50 (human Gal-3 (hGal-3)) [nM] | IC50 (human Gal-1 (hGal-1)) [nM] | Compound
12 | 19 | 1190 | COc1cc(Cl)cc(N(C(=O)[C@@H]2O[C@H](CO)[C@H](O)[C@H](n3cc(-c4cc(F)c(F)c(F)c4)nn3)[C@H]2OC)[C@H]2CCCC[C@@H]2O)c1 [Example 104, (2R,3R,4S,5R,6R)-N-(3-chloro-5-methoxyphenyl)-5-hydroxy-N-((1S,2S)-2-hydroxycyclohexyl)-6-(hydroxymethyl)-3-methoxy-4-(4-(3,4,5-trifluorophenyl)-1H-1,2,3-triazol-1-yl)tetrahydro-2H-pyran-2-carboxamide]
13 | 18 | 218 | CO[C@@H]1[C@@H](n2cc(-c3cc(F)cc(Br)c3)nn2)[C@@H](O)[C@@H](CO)O[C@H]1C(=O)N(c1cc(Cl)cc(C#N)c1)[C@H]1CCCC[C@@H]1O [Example 145, (2R,3R,4S,5R,6R)-4-(4-(3-bromo-5-fluorophenyl)-1H-1,2,3-triazol-1-yl)-N-(3-chloro-5-cyanophenyl)-5-hydroxy-N-((1S,2S)-2-hydroxycyclohexyl)-6-(hydroxymethyl)-3-methoxytetrahydro-2H-pyran-2-carboxamide]
14 | 17 | 239 | CO[C@@H]1[C@@H](n2cc(-c3cc(C)cc(F)c3)nn2)[C@@H](O)[C@@H](CO)O[C@H]1C(=O)N(c1cc(Cl)cc(C#N)c1)[C@H]1CCCC[C@@H]1O [Example 190, (2R,3R,4S,5R,6R)-N-(3-chloro-5-cyanophenyl)-4-(4-(3-fluoro-5-methylphenyl)-1H-1,2,3-triazol-1-yl)-5-hydroxy-N-((1S,2S)-2-hydroxycyclohexyl)-6-(hydroxymethyl)-3-methoxytetrahydro-2H-pyran-2-carboxamide]
15 | 17 | 100 | CO[C@@H]1[C@@H](n2cc(-c3cc(F)c(F)c(F)c3)nn2)[C@@H](O)[C@@H](CO)O[C@H]1C(=O)N(c1cc(Br)ccc1C)[C@H]1CCCC[C@@H]1O [Example 109, (2R,3R,4S,5R,6R)-N-(5-bromo-2-methylphenyl)-5-hydroxy-N-((1S,2S)-2-hydroxycyclohexyl)-6-(hydroxymethyl)-3-methoxy-4-(4-(3,4,5-trifluorophenyl)-1H-1,2,3-triazol-1-yl)tetrahydro-2H-pyran-2-carboxamide]
16 | 17 | 1160 | COc1cc(C#N)cc(N(C(=O)[C@@H]2O[C@H](CO)[C@H](O)[C@H](n3cc(-c4cc(F)cc(F)c4)nn3)[C@H]2OC)[C@H]2CCCC[C@@H]2O)c1 [Example 82, (2R,3R,4S,5R,6R)-N-(3-cyano-5-methoxyphenyl)-4-(4-(3,5-difluorophenyl)-1H-1,2,3-triazol-1-yl)-5-hydroxy-N-((1S,2S)-2-hydroxycyclohexyl)-6-(hydroxymethyl)-3-methoxytetrahydro-2H-pyran-2-carboxamide]
17 | 15 | 798 | CO[C@@H]1[C@@H](n2cc(-c3cc(F)c(C)c(F)c3)nn2)[C@@H](O)[C@@H](CO)O[C@H]1C(=O)N(c1cc(Cl)cc(Cl)c1)[C@H]1CCCC[C@@H]1O [Example 158, (2R,3R,4S,5R,6R)-N-(3,5-dichlorophenyl)-4-(4-(3,5-difluoro-4-methylphenyl)-1H-1,2,3-triazol-1-yl)-5-hydroxy-N-((1S,2S)-2-hydroxycyclohexyl)-6-(hydroxymethyl)-3-methoxytetrahydro-2H-pyran-2-carboxamide]
18 | 10 | 76 | CO[C@@H]1[C@@H](n2cc(-c3cc(F)c(F)c(F)c3)nn2)[C@@H](O)[C@@H](CO)O[C@H]1C(=O)N(c1cc(Cl)ccc1C)[C@H]1CCCC[C@@H]1O [Example 89, (2R,3R,4S,5R,6R)-N-(5-chloro-2-methylphenyl)-5-hydroxy-N-((1S,2S)-2-hydroxycyclohexyl)-6-(hydroxymethyl)-3-methoxy-4-(4-(3,4,5-trifluorophenyl)-1H-1,2,3-triazol-1-yl)tetrahydro-2H-pyran-2-carboxamide]
19 | 10 | 591 | CO[C@@H]1[C@@H](n2cc(-c3ccc(Cl)c(F)c3)nn2)[C@@H](O)[C@@H](CO)O[C@H]1C(=O)N(c1cc(Cl)cc(Cl)c1)[C@H]1CCCC[C@@H]1O [Example 179, (2R,3R,4S,5R,6R)-4-(4-(4-chloro-3-fluorophenyl)-1H-1,2,3-triazol-1-yl)-N-(3,5-dichlorophenyl)-5-hydroxy-N-((1S,2S)-2-hydroxycyclohexyl)-6-(hydroxymethyl)-3-methoxytetrahydro-2H-pyran-2-carboxamide]
